Patent US4284639A, “Combating fungi with 1-phenoxy-2-(2,4-dichlorophenyl)-1-(1,2,4-triazol-1-yl)-ethan-2-ones and -ols” (Bayer Aktiengesellschaft, priority 1977, dated 1981)
≈ marks a conversion by molar mass, not a printed value. Read-outs that look alike come from different tables or passages of the source.

What was measured:
[1] = tested on: Erysiphe graminis var. hordei; assay: Shoot treatment test/powdery mildew of cereal/protective (leaf-destructive mycosis); format: in vivo; conditions: 0.025 % by weight active compound in the spray liquor; barley; after 6 days; protective
Protocol: (§1) To produce a suitable preparation of active compound, 0.25 part by weight of active compound was taken up in 25 parts by weight of dimethylformamide and 0.06 part by weight of alkylaryl polyglycol ether; 975 parts by weight of water were then added. The concentrate was diluted with water to the desired final concentration of the spray liquor.
To test for protective activity, single-leaved young barley plants of the Amsel variety were sprayed with the preparation of active compound until dew-moist. After drying, the barley plants were dusted with spores of Erysiphe graminis var. hordei.
After 6 days' dwell time of the plants at a temperature of 21°-22° C. and 80-90% atmospheric humidity the occurrence of mildew pustules on the plants was evaluated. The degree of infection was expressed as a percentage of the infection of the untreated control plants. 0% denoted no infection and 100% denoted the same degree of infection as in the case of the untreated control.

Puccinia recondita = assay: Shoot treatment test/cereal rust (leaf-destructive mycosis)/protective; format: in vivo; conditions: 0.025 % by weight active compound in the spray liquor; wheat; after 10 days; protective
Protocol: as §1, with “ether and then” for “ether;”, “were” for “were then”
To test the protective activity, one-leaved young wheat plants of the Michigan Amber variety were inoculated with a uredospore suspension of Puccinia recondita in 0.1% strength aqueous agar. After the spore suspension had dried on, the wheat plants were sprayed with the preparation of active compound until dew-moist and were placed, for incubation, in a greenhouse for 24 hours at about 20° C. and 100% relative atmospheric humidity.
After 10 days' dwell time of the plants at a temperature of 20° C. and 80-90% atmospheric humidity, the occurrence of rust pustules on the plant was evaluated. The degree of infection was expressed as a percentage of the infection of the untreated control plants. 0% denoted no infection and 100% denoted the same degree of infection as in the case of the untreated control.

Trichophyton mentagr. = assay: Anti-mycotic in vitro activity, series dilution test; format: cell-based, Trichophyton mentagrophytes; conditions: read-out: Minimum inhibitory concentration
Protocol: (§2) The in vitro tests were carried out in a series dilution test with germ inocula of an average of 5×10^4 germs/ml of substrate. The nutrient medium was (a) for dermatophytes and moulds: Sabouraud's milieu d'epreuve and (b) for yeasts; meat extract/glucose broth.
(§3) The incubation temperature was 28° C. and the duration of incubation was 24 to 96 hours.

Podosphaera leucotricha = assay: Podosphaera test (apple)/protective; format: in vivo; conditions: apple seedlings, 10 days after inoculation, protective
Protocol: (§4) Solvent: 4.7 parts by weight of acetone
(§5) Emulsifier: 0.3 part by weight of alkylaryl polyglycol ether
(§6) Water: 95 parts by weight
The amount of active compound required for the desired concentration of the active compound in the spray liquid was mixed with the stated amount of solvent, and the concentrate was diluted with the stated amount of water which contained the stated amount of emulsifier.
Young apple seedlings in the 4-6 leaf stage were sprayed with the spray liquid until dripping wet. The plants remained in a greenhouse for 24 hours at 20° C. and at a relative atmospheric humidity of 70%. They were then inoculated by dusting the conidia of the apple powdery mildew causative organism (Podosphaera leucotricha) and placed in a greenhouse at a temperature of 21°-23° C. and at a relative atmospheric humidity of about 70%.
10 days after the inoculation, the infection of the seedlings was determined. The assessment data were converted to % infection. 0% meant no infection; 100% meant that the plants were completely infected.

Microsporon felineum = assay: Anti-mycotic in vitro activity, series dilution test; format: cell-based; conditions: read-out: Minimum inhibitory concentration
Protocol: as §2, §3

Candida albicans = assay: as above; format: cell-based; conditions: read-out: Minimum inhibitory concentration
Protocol: as §2, §3

Penicillium commune = assay: as above; format: cell-based; conditions: read-out: Minimum inhibitory concentration
Protocol: as §2, §3

Aspergillus species = assay: as above; format: cell-based; conditions: read-out: Minimum inhibitory concentration
Protocol: as §2, §3

Erysiphe cicohiacearum = assay: Erysiphe test (cucumber)/protective; format: in vivo; conditions: cucumber plants, after 12 days, protective
Protocol: as §4, §5, §6
The amount of the active compound required for the desired concentration of active compound in the spray liquid was mixed with the stated amount of solvent and the concentrate was diluted with the stated amount of water containing the stated amount of emulsifier.
Young cucumber plants with about three foliage leaves were sprayed with the spray liquid until dripping wet. The cucumber plants remained in a greenhouse for 24 hours to dry. They were then, for the purpose of inoculation, dusted with conidia of the fungus Erysiphe cicohiacearum. The plants were subsequently placed in a greenhouse at 23°-24° C. and at a relative atmospheric humidity of about 75%.
After 12 days, the infection of the cucumber plants was determined. The assessment data were converted to percent infection. 0% meant no infection; 100% meant that the plants were totally infected.

Torulopsis glabrata = assay: Anti-mycotic in vitro activity, series dilution test; format: cell-based; conditions: Nakaseomyces glabratus; γ/ml of nutrient medium; 28° C.; 24 to 96 hours; read-out: Minimum inhibitory concentration
Protocol: as §2, §3

[2] = γ/ml of nutrient medium, 28° C., 24 to 96 hours

| MIC (Trichophyton mentagr.; [2]) [µg/mL] | MIC (Microsporon felineum; [2]) [µg/mL] | MIC (Candida albicans; [2]) [µg/mL] | MIC (Penicillium commune; [2]) [µg/mL] | MIC (Aspergillus species; [2]) [µg/mL] | Structure (SMILES) | Infection in % of the untreated control [1] [%] | other results |
| --- | --- | --- | --- | --- | --- | --- | --- |
| – | – | – | – | – | CC(C)(C)C(=O)C(Oc1ccc(-c2ccc(Cl)cc2)cc1)n1cncn1 (stereo not shown) [A, reference compound] | 55.0 | – |
| – | – | – | – | – | CC(C)(C)C(=O)C(Oc1ccc(-c2ccccc2)cc1)n1cncn1 (stereo not shown) [B, reference compound] | – | Infection in % of the untreated control (Puccinia recondita): 33.8% |
| – | – | – | – | – | CC(C)(C)C(O)C(Oc1ccc(Cl)cc1Cl)n1cncn1 (stereo not shown) [C, reference compound] | – | Infection in % of the untreated control (Puccinia recondita): 33.8% |
| 4 | 32 | 8 | > 64 | 64 | Cl.OC(c1ccc(Cl)cc1Cl)C(Oc1ccc(Cl)cc1)n1cncn1 (stereo not shown) [Compound 3, 1-(4-chlorophenoxy)-2-(2,4-dichlorophenyl)-1-(1,2,4-triazol-1-yl)-ethan-2-ol hydrochloride] | 7.5 | Infection in % at an active compound concentration of 0.001% (Podosphaera leucotricha): 0%; Infection in % at an active compound concentration of 0.00025% (Erysiphe cicohiacearum): 6% |
| – | – | – | – | – | O=C(c1ccc(Cl)cc1Cl)C(Oc1ccc(Cl)cc1Cl)n1cncn1 (stereo not shown) [Compound 4] | 0.0 | – |
| – | – | – | – | – | O=C(c1ccc(Cl)cc1Cl)C(Oc1ccc(-c2ccc(Cl)cc2)cc1)n1cncn1 (stereo not shown) [Compound 6] | 16.3 | – |
| 4 (≈ 9.54 µM) | 32 (≈ 76.4 µM) | 8 (≈ 19.1 µM) | > 64 | 64 (≈ 153 µM) | OC(c1ccc(Cl)cc1Cl)C(Oc1ccc(Cl)cc1Cl)n1cncn1 (stereo not shown) [Compound 14] | 0.0 | Infection in % at an active compound concentration of 0.001% (Podosphaera leucotricha): 0%; MIC (Torulopsis glabrata): 32 µg/mL (≈ 76.4 µM); Infection in % at an active compound concentration of 0.00025% (Erysiphe cicohiacearum): 16% |
| < 1 | < 1 | 32 (≈ 75.1 µM) | > 64 | > 64 | OC(c1ccc(Cl)cc1Cl)C(Oc1ccc(-c2ccccc2)cc1)n1cncn1 (stereo not shown) [Compound 15] | 37.5 | MIC (Torulopsis glabrata): 1 µg/mL (≈ 2.35 µM); Infection in % at an active compound concentration of 0.00025% (Erysiphe cicohiacearum): 12% |
| < 1 | 4 (≈ 8.68 µM) | 8 (≈ 17.4 µM) | > 64 | > 64 | OC(c1ccc(Cl)cc1Cl)C(Oc1ccc(-c2ccc(Cl)cc2)cc1)n1cncn1 (stereo not shown) [Compound 16] | 37.5 | MIC (Torulopsis glabrata): 1 µg/mL (≈ 2.17 µM) |
| – | – | – | – | – | CC(C)(C)C(=O)C(Oc1ccc(Cl)cc1)n1cncn1 (stereo not shown) [D, reference compound] | – | MIC (Trichophyton mentagr.): 4 µg/mL (≈ 13.6 µM); Infection in % at an active compound concentration of 0.001% (Podosphaera leucotricha): 42%; MIC (Microsporon felineum): 100 µg/mL (≈ 340 µM); MIC (Candida albicans): 40 µg/mL (≈ 136 µM); MIC (Penicillium commune): > 100 µg/mL; MIC (Aspergillus species): 100 µg/mL (≈ 340 µM) |
| – | – | – | – | – | CC(C)(C)C(O)C(Oc1ccc(-c2ccccc2)cc1)n1cncn1 (stereo not shown) [E, reference compound] | – | Infection in % at an active compound concentration of 0.00025% (Erysiphe cicohiacearum): 62% |
| 4 (≈ 12.2 µM) | 100 (≈ 305 µM) | 40 (≈ 122 µM) | > 100 | 100 (≈ 305 µM) | CC(C)(C)C(=O)C(Oc1ccc(Cl)cc1Cl)n1cncn1 (stereo not shown) [F, reference compound] | – | – |
| – | – | – | > 100 | – | O=C(c1ccc(Cl)cc1)C(Oc1ccc(Cl)cc1Cl)n1cncn1 (stereo not shown) [G, reference compound] | – | – |
| 4 (≈ 12.5 µM) | 64 (≈ 200 µM) | 64 (≈ 200 µM) | > 64 | > 64 | COC(=O)c1ccc(OC(C(O)C(C)(C)C)n2cncn2)cc1 (stereo not shown) [H, reference compound] | – | – |
| 64 (≈ 203 µM) | – | 64 (≈ 203 µM) | > 64 | – | OC(c1ccccc1)C(Oc1ccc(Cl)cc1)n1cncn1 (stereo not shown) [K, reference compound] | – | – |

| Structure (SMILES) | MIC (Trichophyton mentagr.; [2]) [µg/mL] | MIC (Microsporon felineum; [2]) [µg/mL] | MIC (Candida albicans; [2]) [µg/mL] | MIC (Penicillium commune; [2]) [µg/mL] | MIC (Aspergillus species; [2]) [µg/mL] | Infection in % of the untreated control [1] [%] | other results |
| --- | --- | --- | --- | --- | --- | --- | --- |
| Cl.O=C(c1ccc(Cl)cc1Cl)C(Oc1ccc(Cl)cc1)n1cncn1 (stereo not shown) [Compound 2, 1-(4-Chlorophenoxy)-2-(2,4-dichlorophenyl)-1-(1,2,4-triazol-1-yl)-ethan-2-one hydrochloride] | 4 | 32 | 32 | > 64 | > 64 | 0.0 | Infection in % of the untreated control (Puccinia recondita): 12.5%; Infection in % at an active compound concentration of 0.001% (Podosphaera leucotricha): 25%; Infection in % at an active compound concentration of 0.00025% (Erysiphe cicohiacearum): 12% |
| O=C(c1ccc(Cl)cc1Cl)C(Oc1ccc(-c2ccccc2)cc1)n1cncn1 (stereo not shown) [Compound 5] | < 1 | – | 32 (≈ 75.4 µM) | > 64 | > 64 | – | Infection in % of the untreated control (Puccinia recondita): 10.0%; MIC (Torulopsis glabrata): 32 µg/mL (≈ 75.4 µM) |
